From patent US9439986B2, “Tricarbonyl technetium-99m, rhenium-185/187, or rhenium-188 labeled cyclic RGD derivatives and uses thereof” (BIO IMAGING KOREA CO., LTD., priority 2010, dated 2016)

What was measured:
subcutaneous tumor = test: Tumor growth suppression and treatment performance of rhenium-188 labeled derivative in tumor model mice (I); type: in vivo
Method: Treatment effect experiment was conducted to investigate the ability of tricarbonyl rhenium-188 labeled cyclic RGD derivative to suppress tumor growth.
The rhenium-188 labeled cyclic RGD derivative of Example 5 was injected once in a week, for four weeks. The models to determine treatment effect were divided into small radioactive injection group (300 μCi) and large radioactive injection group (600 μCi), and at the same time, a control group injected with sterilized saline and a comparative group injected with 100 μg of cyclic RGD (cRGDyV) intraperitoneally everyday, were also set. The compound of Example 11 and the sterilized saline were administered through tail veins. The CT images was taken once a week, to visually measure the growth and size of the subcutaneous tumor. The tumor was actually measured three times a week using Vernier Calipers, and the weights of the animal models were also consistently measured three times a week for total 4 weeks.

tumor = system: tumor
Method: The small-animal SPECT/CT was used to acquire static imaging of the mice for 60 minutes after the injection. The imaging protocol consisted of repetition of emission and transmission as follows: [10 min emission+transmission]×6 times

integrin αvβ3 = conditions: cRGDyV 18 mg/Kg tail vein 10 minutes before; at 25 minutes post-injection; compared to images of FIG. 6
Method: Upon injection, SPECT/CT images were acquired under following conditions:
The animal models were anesthetized with 2% isofluorane gas for the duration of image acquisition time, and the tumor size of the animal models was 0.4 cc. CT images were taken under condition of 45 v, 178 μA for 4 min and 30 sec., and acquired at 10 minute intervals for total 9 times (i.e., for 90 minutes after the injection).

[1] = 600 μCi once a week for four weeks
[2] = 600 μCi once a week, 0.3 cc at initial measurement
[3] = 100 μg cyclic RGD (cRGDyV) intraperitoneally everyday, initial tumor size 0.7 cc

cyclic{(tricarbonyl-[^188Re]rhenium-N-α-bis-hydroxycarbonyl methyl-glycine-CONH(CH2CH2O)4CH2CH2CONH-lysine)-alginine-glycine-aspartic acid-D-phenylalanine} [Example 11]
tumor growth suppression ability compared to sterilized saline or cyclic RGD groups (subcutaneous tumor; 300 μCi once a week for four weeks): approximately 50% | tumor size when the treatment for four weeks was ended (subcutaneous tumor; 300 μCi tail vein once a week for four weeks, initial tumor size 0.23 cc): 0.66 cc | tumor growth suppression ability compared to low radiation energy treatment group (300 μCi) (subcutaneous tumor; [1]): approximately 79% | tumor growth suppression ability compared to sterilized saline and cyclic RGD groups (subcutaneous tumor; [1]): approximately 90% | tumor size at the end of the treatment (subcutaneous tumor; 600 μCi once a week for four weeks, 0.3 cc at initial measurement): 1.4 cc | tumor size at 3 week (subcutaneous tumor; [2]): 0.7 cc | tumor size at week 2 (subcutaneous tumor; [2]): 0.3 cc

cRGDyV [cyclic RGD]
rate of tumor growth compared with sterilized saline group (subcutaneous tumor; 100 μg cyclic RGD (cRGDyV) intraperitoneally everyday): no meaningful difference | weight of animals after treatment (subcutaneous tumor; 100 μg cyclic RGD (cRGDyV) intraperitoneally everyday, initial measurement 23 g): 30 g | tumor size at 2 week (subcutaneous tumor; [3]): 3.9 cc | tumor size at 3 week (subcutaneous tumor; [3]): 8.0 cc | tumor size at last week of treatment (subcutaneous tumor; [3]): 12.9 cc

cyclic{(tricarbonyl-[^185/187Re]rhenium-N-α-bis-hydroxycarbonyl methyl-alginine-glycine-aspartic acid-D-phenylalanine} [Example 6]
tumor size after three days (tumor; 600 μCi/200 μL single injection, initial size 0.3 cc, non-administered model 0.65 cc): 0.35 cc

(tricarbonyl-[^99mTc]technetium-N-α-bis-hydroxycarbonyl methyl-aspartic acid)-[cyclic (lysine-alginine-glycine-aspartic acid-D-phenylalanine)]2 [Example 15]
reduction of absorption in tumor after administration of cyclic RGD (cRGDyV) (integrin αvβ3): ≥ 94%

(tricarbonyl [^188Re]rhenium-N-α-bis-hydroxycarbonyl methyl-aspartic acid)-[cyclic(lysine-alginine-glycine-aspartic acid-D-phenylalanine)]2 [Example 12]
CD31 blood vessel staining of tumor tissue slice (tumor; 600 μCi/200 μL): no clear vessels were observed | integrin αvβ3 distribution in tumor tissue slice using Q-dot RGD derivatives (tumor; 600 μCi/200 μL): most integrin was damaged | reduction of uptake rate in tumor (SPECT with the compound of Example 15) versus non-administered model (tumor; 600 μCi/200 μL, SPECT after three days): 59% | distribution of blood vessels around the tumor (photographs of removed tumors) (tumor; 600 μCi/200 μL, versus non-administered model): noticeably less distribution of ambient blood vessels
